Measured values published in ChEMBL document CHEMBL2375211, “2-methoxyjuglone induces apoptosis in HepG2 human hepatocellular carcinoma cells and exhibits in vivo antitumor activity in a H22 mouse hepatocellular carcinoma model” (J Nat Prod, 2013).

What was measured:
Mus musculus = experiment: Toxicity in Kunming mouse allografted with mouse H22 cells assessed as decrease in body weight at 20 mg/kg/day, ip measured every day for 8 days; type: organism-based; set-up: route intraperitoneal; details: in vivo, 192 h
H22 = experiment: Antitumor activity against mouse H22 cells allografted in Kunming mouse assessed as decrease in weight of tumor mass at 20 mg/kg/day, ip administered 8 days measured after 10 days relative to control; type: functional; set-up: scale not given: the % may be the effect or the level left; details: route intraperitoneal

SMILES: O=c1[nH]cc(F)c(=O)[nH]1 [FLUOROURACIL]
- Activity (Mus musculus): Toxic
- Activity (H22): 81%
